The test system of data set [1] is differentiated SH-SY5Y cells. In words: Neutral red uptake cytotoxicity assay, differentiated SH-SY5Y. The class given is cell-based. To be noted: 24 h; for Top (maximal effect): maximum cell death of fitted curve; for EC50: Homo sapiens, cell death curves 0–1500 µM, read-out: EC50 (half-maximum-effect concentration). The protocol: SH-SY5Y cells were acquired from the American Type Culture Collection (Manassas, VA, USA). Cells were cultured in 25 cm^2 flasks using DMEM—high glucose supplemented with 10% heat-inactivated FBS, 1% MEM non-essential amino acids and 1% penicillin/streptomycin mixture, and maintained in a 5% CO2–95% air atmosphere, at 37 °C, until 80% confluence. Cells were routinely subcultured using trypsin-EDTA and, to avoid phenotypic alterations, were always used between passages 23 and 29. In all experiments, the cells were seeded at a density of 25,000 cells/cm^2. As previously described, to achieve a dopaminergic neuronal phenotype, the cells were seeded in a complete DMEM medium containing 10 μM retinoic acid and, after 3 days, 80 nM TPA was added to the cultures for another 3 days.
Neutral red uptake and resazurin reduction assays were performed after exposure of differentiated SH-SY5Y and HepG2 cells to the drugs under study. To obtain a concentration–response curve, a broad concentration range (0–2000 µM) was investigated, and cytotoxicity was evaluated 24 h after exposure in 96-well cell culture plates. As previously described, neutral red uptake assay is based on the incorporation of neutral red dye into the lysosomes of viable cells and the amount of dye incorporated represents the cells’ lysosomal functionality, and resazurin reduction assay is based on the irreversible reduction of resazurin dye to the fluorescent resorufin product by metabolically active cells.
Briefly, 24 h after being exposed to different concentrations of the compounds, differentiated SH-SY5Y cells were incubated with either neutral red (50 µg/mL) or resazurin (10 µg/mL) solutions for 90 min, at 37 °C, in a 5% CO2–95% air atmosphere. For HepG2 cells, 24 h after the exposure to the tested drugs, the cells were incubated with either neutral red (50 µg/mL) or resazurin (10 µg/mL) solutions for 45 and 60 min, respectively, at 37 °C, in a 5% CO2–95% air atmosphere.
In the neutral red uptake assay, at the end of the incubation period, the cell culture medium was removed and a solution of absolute ethyl alcohol/distilled water (1:1) with 5% acetic acid was added to extract the dye absorbed only by the viable cells. The absorbance was measured at 540 nm in a multi-well plate reader (PowerWaveX BioTek Instruments, Winooski, VT, USA). In the resazurin assay, at the end of the incubation period, the fluorescence was measured at 530 nm excitation and 590 nm emission wavelengths in a multi-well plate reader (PowerWaveX BioTek Instruments, Winooski, VT, USA).
The results were expressed as a percentage of control cells. At least four independent experiments were performed, in triplicate. For differentiated SH-SY5Y cells, the neutral red uptake assay was identified as the most sensitive assay and, therefore, used for the subsequent experiments. On the other hand, for HepG2 cells, the resazurin reduction assay was identified as the most sensitive assay and, therefore, used for the subsequent experiments.

The nature of data set [2]: PAMPA-BBB permeability assay. From the text:
In the present study we used a Parallel Artificial Membrane Permeation Assay (PAMPA) with a membrane mimicking the BBB phospholipidic composition (PAMPA-BBB) to evaluate and predict passive, transcellular permeability of the mescaline-NBOMe, 25B-NBOMe and 25N-NBOMe drugs.
The PiON inc database software was used for data analysis.

A short description of data set [3]: Chromatographic Hydrophobicity Index (CHI) by HPLC, CHILogD7.4. The conditions noted are these: pH 7.4.
Protocol: The CHI values at pH 7.4 were determined using an experimental protocol described elsewhere [23, 25]. The CHI values were assessed from experimental retention times (tR) of the compounds under study and a mixture of reference compounds obtained on the HPLC system with a Luna C18 (2) column (150 × 4.6 mm, 5 µm, Phenomenex, CA, USA). […] Mobile phase A was 10 mM ammonium acetate (pH 7.4) and mobile phase B was acetonitrile. The following gradient program was applied: 0–7 min 0–100% B, 7–15 min 100% B, 15–17 min 100–0% B. The flow was 1 mL/min, and the injection volume was 40 μL.
Data set [4] can be described thus: CHI on Immobilized Artificial Membrane (IAM) HPLC, Kpcell. In kind it is physicochemical. To be noted: partition between internal and external cellular media; estimated from experimental CHI(IAM). As to the method:
The CHI on IAM (CHI (IAM)) values were determined from the experimental tR obtained on the HPLC system with an IAM.PC.DD2 column (100 × 4.6 mm, 10 µm, Regis Technologies, Inc., Morton Grove, IL, USA). […] The Log Kpcell (partition between internal and external cellular media) values were estimated from the drugs’ experimental CHI IAM values using Equations (2) and (3) described elsewhere. Log kIAM = 0.046 CHI(IAM) + 0.42(2) Log Kpcell = 1.1 Log kIAM(3)

The test system of data set [5] is differentiated SH-SY5Y cells. In words: Intracellular ATP (luciferin-luciferase bioluminescence assay). The conditions noted are these: 24 h, 500 μM. In kind it is cell-based. As to the method: Intracellular ATP levels were determined, as previously described, through a bioluminescence reaction with luciferase, which catalyzes the formation of light from ATP and luciferin.
Intracellular adenosine triphosphate (ATP) was quantified through the bioluminescent D-luciferin-luciferase assay. The samples used for the intracellular ATP quantification were prepared as described for the “Intracellular Total Glutathione Quantification” assay. The acidic samples and standards (ATP standards prepared in 5% HClO4) were neutralized with ice-cold 0.76 M KHCO3 (1:1) and centrifuged (13,000× g, 10 min at 4 °C). Afterwards, 75 µL of the supernatants were transferred to a white opaque 96-well plate, followed by the addition of 75 µL of luciferin-luciferase solution (0.15 mM luciferin and 3 × 10^6 light unit’s luciferase/mL prepared in a 7.6 pH Tris-Glycine buffer solution: 1 mM Trizma; 10 mM MgSO4; 50 mM glycine; 0.55 mM EDTA and 1% BSA), protected from light. The samples’ bioluminescence (560 nm) was immediately measured in a multi-well plate reader (PowerWaveX BioTek Instruments, Winooski, VT, USA). The ATP content in the samples was normalized to the protein content (as previously described in “Intracellular Reduced Glutathione Quantification”) and the results were expressed as a percentage of control cells. At least four independent experiments were performed, in duplicate.

`COc1ccccc1CNCCc1cc(OC)c(OC)c(OC)c1` [Mescaline-NBOMe, 3,4,5-Trimethoxy-N-(2-methoxybenzyl)-β-phenethylamine]: in data set [1], the “Bottom (baseline)” value was 1.218, the “Hill Slope” value turned out to be 2.681, the “Top (maximal effect)” value turned out to be 98.57 and the EC50 came to 406 µM. The “−Log Pe ± SD” value in data set [2] was determined as 4.7 ± 0.49. In addition, in data set [3], the chromatographic logD is 1.34. Further, the Kpcell in data set [4] is listed as 2.71.

For the compound `COc1cc(CCN)c(OC)cc1Br` [2C-B, 4-Bromo-2,5-dimethoxy-β-phenethylamine], in data set [1], the “Bottom (baseline)” value was 1.900, the “Hill Slope” value is reported as 1.746, the “Top (maximal effect)” value stood at 93.68 and the EC50 turned out to be 165 µM. This compound also yielded a chromatographic logD in data set [3] of 0.7. Also, in data set [4], the Kpcell is reported as 3.08.

As to `COc1cc([N+](=O)[O-])c(OC)cc1CCNCc1ccccc1OC` [25N-NBOMe, 4-Nitro-2-dimethoxy-N-(2-methoxybenzyl)-β-phenethylamine], in data set [1], the “Bottom (baseline)” value came to 2.841, the “Hill Slope” value was 5.758, the “Top (maximal effect)” value amounted to 87.38 and the EC50 worked out at 125 µM. Further, in data set [2], the “−Log Pe ± SD” value is listed as 4.6 ± 0.34. The compound further displayed a chromatographic logD in data set [3] of 1.96. Moreover, the Kpcell in data set [4] is reported as 5.05.

For the compound `COc1cc(CCNCc2ccccc2OC)c(OC)cc1Br` [25B-NBOMe, 4-Bromo-2,5-dimethoxy-N-(2-methoxybenzyl)-β-phenethylamine], in data set [1], the “Bottom (baseline)” value was found to be 0.0825, the “Hill Slope” value amounted to 2.687, the “Top (maximal effect)” value amounted to 87.85 and the EC50 amounted to 33.9 µM. In addition, in data set [5], the ATP intracellular levels entry is listed as “completely depleted intracellular ATP levels”. Further, in data set [2], the “−Log Pe ± SD” value is listed as 4.4 ± 0.36. Besides, in data set [3], the chromatographic logD was determined as 2.32. Further, in data set [4], the Kpcell is 9.08.

Turning to `COc1cc([N+](=O)[O-])c(OC)cc1CCN` [2C-N, 2,5-dimethoxy-4-nitrophenethylamine], in data set [1], the “Bottom (baseline)” value is given as 6.911, the “Hill Slope” value is given as 2.691, the “Top (maximal effect)” value is recorded as “≈100” and the EC50 stood at 733 µM. Moreover, in data set [5], the ATP intracellular levels entry is on record as “about 60 % of control cells”. The chromatographic logD in data set [3] amounted to 0.37. Moreover, the Kpcell in data set [4] is given as 0.94.
